Read-outs that look alike come from different tables or passages of the source. Where a SMILES comes first, the peptide text is derived from it. [ ]: non-standard residue; d: D form. The star is where a group is joined. Sta = CC(C)C[C@H](N)[C@@H](O)CC(=O)O; Isovaleryl = CC(C)CC(=O)*
What was measured:
[1] = target: PoPM4; conditions: read-out: Dissociation Constant (K i) PoPM4; cited from earlier work
[2] = target: T1, PbPM4 (Plasmodium berghei, UniProt O76965); test: Inhibition of mature PbPM4, dissociation constants (Ki) from initial cleavage velocities of a chromogenic peptide substrate; type: biochemical
Method: (§1) Chromogenic peptide substrates were dissolved in a solution containing 20% dimethyl sulfoxide (DMSO), 10% formic acid, and 70% distilled deionized water to generate stock solutions. Inhibitor stock solutions were prepared in 100% DMSO. The concentrations of the stock solutions were determined by amino acid analysis.
(§2) Kinetic assays were set up in 500 mM sodium citrate, pH 5.0 at 37°C with a 5-min pre-equilibrium time with buffer. To study kinetics of the zymogen form, assays were set up in 500 mM sodium citrate, pH 5.5 at 37°C with a 5-min pre-equilibrium time. All enzymatic reactions were carried out at 37°C.
(§3) Dissociation constants were determined as previously described.
(§4) The enzymes were prepared for kinetic assays: purified proPbPM4 was pre-incubated in 100 mM sodium citrate, pH 5.0, at 37°C for 5 min; purified mature PfPM1 was pre-incubated in 100 mM sodium citrate, pH 5.5, at 37°C for 3 min; all the other plasmepsins were pre-incubated in 100 mM sodium formate, pH 4.5, at 37°C for 5 min to convert zymogen to mature enzyme before the addition of substrates. Pre-incubation of hcatD was carried out in 200 mM sodium formate, pH 3.7, at 37°C for 5 min. Compound 1 was dissolved in 100% DMSO, and filtered through a 0.45 μm Costar cellulose acetate tube filter by centrifugation at 20,000 g, room temperature for 5 min to remove any particulate. The concentration of compound 1 was determined by amino acid analysis. Dissociation constants (Ki) were determined as described above.

[3] = target: T1, PbPM4; test: Kinetic analysis of cleavage of chromogenic peptide substrates by mature PbPM4; type: biochemical; conditions: sodium citrate pH 5.0, 37°C
Method: as §1, §2
The substrate hydrolysis was analyzed by spectroscopy and defined as the decrease of the average absorbance between 284–324 nm. Pre-equilibrated enzyme was mixed with substrate at least six different concentrations (μM). The initial cleavage velocities (AU/sec) of these reactions were immediately measured on a Cary 50 Bio UV-Visible spectrophotometer. The initial cleavage rates (M/sec) were converted from the observed velocities (AU/sec) by dividing the observed velocities by the total absorbance changes upon complete enzymatic digestion of the substrate of known concentrations (i.e., AU/M).
The total concentration of active enzyme, [E]tot, was determined by titrating PbPM4 enzyme with the tight binding, competitive, aspartic proteinase inhibitor pepstatin A. A constant amount of pre-equilibrated enzyme was mixed either with 100 μM of the peptide substrate Lys-Pro-Ile-Leu-Phe*Nph-Arg-Leu or with both 100 μM of substrate and pepstatin A at a series of different concentrations. The initial cleavage rates of the substrate at different inhibitor concentrations were immediately measured afterwards using a Cary 50 Bio UV-Visible spectrophotometer.

[4] = target: PvPM4 (Plasmodium vivax, UniProt O60989); test: biochemical
Method: as §3
(§5) Besides PbPM4, the cloning, expression and purification of recombinant human FV plasmepsins, including PfPM1, 2 and 4, PoPM4, PvPM4 and PmPM4, and hcatD were performed according to experimental procedures described in previous reports. Briefly, genes encoding N-terminally truncated semi-pro-enzymes were cloned from genomic DNA, or intra-erythrocyte stage cDNA library of Plasmodium spp. (e.g., in the case of PfPM1), and inserted to pET expression vectors (EMD Millipore). Protein expression, inclusion body preparation and in vitro protein refolding were performed as described above for PbPM4. Proteins were purified using anion exchange chromatography.
as §4, with “Compound 1 was dissolved in 100% DMSO, and filtered through a 0.45 μm Costar cellulose acetate tube filter by centrifugation at 20,000 g, room temperature for 5 min to remove any particulate.” left out

[5] = target: PfPM1 (Plasmodium falciparum, UniProt P39898); test: biochemical
Method: as §3, §5
as §4, with “Compound 1 was dissolved in 100% DMSO, and filtered through a 0.45 μm Costar cellulose acetate tube filter by centrifugation at 20,000 g, room temperature for 5 min to remove any particulate.” left out

[6] = target: T2, human cathepsin D (hcatD) (Homo sapiens, UniProt P07339); test: Inhibition of human cathepsin D, dissociation constants (Ki); type: biochemical; conditions: pre-incubated in 200 mM sodium formate pH 3.7, 37°C, 5 min; read-out: Dissociation Constant (K i) hCatD
T2 construct: made in house
Method: as §3
Proteins were purified using anion exchange chromatography.
Dissociation constants (Ki) were determined as described above.

[7] = target: PmPM4; conditions: read-out: Dissociation Constant (K i) PmPM4; cited from earlier work

T1 sequence (O76965 entry or part of it): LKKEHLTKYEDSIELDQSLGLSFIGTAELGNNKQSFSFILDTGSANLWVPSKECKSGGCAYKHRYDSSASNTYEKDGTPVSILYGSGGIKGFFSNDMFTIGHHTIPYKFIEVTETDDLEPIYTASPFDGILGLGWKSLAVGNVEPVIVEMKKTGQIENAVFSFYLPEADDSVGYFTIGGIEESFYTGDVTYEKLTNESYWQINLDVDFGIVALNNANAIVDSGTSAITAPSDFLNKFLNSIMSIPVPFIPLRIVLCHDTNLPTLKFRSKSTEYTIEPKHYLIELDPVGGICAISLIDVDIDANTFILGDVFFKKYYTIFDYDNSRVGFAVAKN
T2 sequence (P07339 65-412): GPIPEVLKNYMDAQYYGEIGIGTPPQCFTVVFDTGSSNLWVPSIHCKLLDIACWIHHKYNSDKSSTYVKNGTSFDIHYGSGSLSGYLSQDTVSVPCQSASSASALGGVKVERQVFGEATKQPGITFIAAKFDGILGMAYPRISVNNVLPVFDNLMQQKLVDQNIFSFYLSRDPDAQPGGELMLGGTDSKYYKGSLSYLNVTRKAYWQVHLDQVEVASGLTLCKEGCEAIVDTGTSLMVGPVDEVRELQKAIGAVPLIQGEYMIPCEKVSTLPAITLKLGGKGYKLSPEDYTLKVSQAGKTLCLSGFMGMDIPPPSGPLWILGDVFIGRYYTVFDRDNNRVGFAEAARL
PvPM4, sequence (O60989 122-450 limits assumed): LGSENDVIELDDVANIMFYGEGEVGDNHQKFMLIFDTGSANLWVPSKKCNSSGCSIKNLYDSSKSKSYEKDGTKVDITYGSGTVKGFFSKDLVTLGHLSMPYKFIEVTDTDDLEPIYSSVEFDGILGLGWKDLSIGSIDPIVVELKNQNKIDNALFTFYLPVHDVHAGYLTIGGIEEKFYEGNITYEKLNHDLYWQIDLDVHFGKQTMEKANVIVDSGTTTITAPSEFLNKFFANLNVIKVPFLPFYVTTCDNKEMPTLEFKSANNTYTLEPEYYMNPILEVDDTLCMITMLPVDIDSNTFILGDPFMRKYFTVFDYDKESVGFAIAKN
PfPM1, sequence (P39898 124-452): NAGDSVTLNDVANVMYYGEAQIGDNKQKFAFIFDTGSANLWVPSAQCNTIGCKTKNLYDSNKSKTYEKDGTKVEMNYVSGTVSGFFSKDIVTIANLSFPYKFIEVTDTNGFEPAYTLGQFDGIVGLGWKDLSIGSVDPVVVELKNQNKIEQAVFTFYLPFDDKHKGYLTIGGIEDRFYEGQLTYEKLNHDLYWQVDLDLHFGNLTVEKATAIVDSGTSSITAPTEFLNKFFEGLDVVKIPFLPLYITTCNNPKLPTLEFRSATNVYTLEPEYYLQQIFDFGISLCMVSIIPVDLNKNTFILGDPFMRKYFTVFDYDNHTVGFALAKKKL

Molecule | Ki [1] | Ki [7] | other results
CC(C)C[C@@H](CN[C@@H](CC(C)C)C(=O)N[C@@H](CCC(N)=O)C(=O)N[C@@H](Cc1ccccc1)C(=O)O)NC(=O)[C@H](CO)NC(=O)[C@H](Cc1ccccc1)NC(=O)[C@@H]1CCCN1C(=O)[C@@H](N)CCCCN [Compound 2, KPFSLΨLQF] | 767 ± 81 nM |  | 
CC(C)CC(=O)N[C@H](C(=O)N[C@H](C(=O)N[C@@H](CC(C)C)[C@@H](O)CC(=O)N[C@@H](C)C(=O)N[C@@H](CC(C)C)[C@@H](O)CC(=O)O)C(C)C)C(C)C [pepstatin A, reference compound] (Isovaleryl-VV[Sta]A[Sta]-OH) |  |  | Ki ([2]; mature PbPM4, sodium citrate pH 5.0, 37°C, 5 min pre-equilibrium, read-out: K i): 0.11 ± 0.02 nM
Lys-Pro-Ile-Leu-Phe*Nph-Arg-Leu [K-P-I-L-F*Nph-R-L] |  |  | K m [3]: 2.1 ± 0.2 µM; k cat [3]: 34.9 ± 5.7 s⁻¹; k cat/K m [3]: 16.5 ± 2.9 µM⁻¹ s⁻¹
N=C(N)NCCC[C@H](NC[C@H](Cc1ccccc1)NC(=O)[C@H](CCC(=O)O)NC(=O)[C@H](Cc1ccc(O)cc1)NC(=O)[C@@H]1CCCN1C(=O)[C@@H](N)CCCCN)C(=O)N[C@@H](CCC(N)=O)C(=O)N[C@@H](Cc1ccccc1)C(=O)O [Compound 1, KPYEFΨRQF] |  |  | selectivity to PbPM4 and the four plasmepsin 4 homologs of human malaria parasites versus hcatD ([2]; from K i values): > 10 fold; Ki ([2]; proPbPM4 pre-incubated in 100 mM sodium citrate pH 5.0, 37°C, 5 min, read-out: Dissociation Constant (K i) PbPM4): 3900 nM; Ki [4]: 426 ± 44 nM; Ki [5]: > 100 µM; Ki [6]: 41 µM
CC(C)C[C@H](NC(=O)[C@@H]1CCCN1C(=O)[C@@H](N)CCCCN)C(=O)N[C@@H](CCC(=O)O)C(=O)N[C@H](CN[C@@H](Cc1ccccc1)C(=O)N[C@@H](CCCNC(=N)N)C(=O)N[C@H](C(=O)O)C(C)C)Cc1ccccc1 [Compound 5, KPLEFΨFRV] | 3.2 ± 0.5 nM | 3.7 ± 0.6 nM | 
CC(C)C[C@@H](CN[C@@H](C)C(=O)N[C@@H](Cc1c[nH]c2ccccc12)C(=O)N[C@H](C(=O)O)[C@@H](C)O)NC(=O)[C@H](CCC(=O)O)NC(=O)[C@H](Cc1ccccc1)NC(=O)[C@@H]1CCCN1C(=O)[C@@H](N)CCCCN [Compound 7, KPFELΨAWT] | > 20000 nM | 9000 nM | 
CCCC[C@@H](CN[C@@H](CC(C)C)C(=O)N[C@@H](CCC(N)=O)C(=O)N[C@H](C(=O)O)[C@@H](C)CC)NC(=O)[C@H](CO)NC(=O)[C@H](CCCC)NC(=O)[C@@H]1CCCN1C(=O)[C@@H](N)CCCCN [Compound 3, KPnLSnLΨLQI] | 187 ± 29 nM | 160 ± 26 nM | 
CC(C)[C@H](NC(=O)[C@@H]1CCCN1C(=O)[C@@H](N)CCCCN)C(=O)N[C@@H](CCC(=O)O)C(=O)N[C@H](CN[C@@H](CCCNC(=N)N)C(=O)N[C@@H](CCC(N)=O)C(=O)N[C@H](C(=O)O)[C@@H](C)O)Cc1ccccc1 [Compound 4, KPVEFΨRQT] | 39 ± 4.5 nM | 10.3 ± 1.3 nM | 
CC(C)C[C@H](NC(=O)[C@@H]1CCCN1C(=O)[C@@H](N)CCCCN)C(=O)N[C@@H](CCC(=O)O)C(=O)N[C@H](CN[C@@H](Cc1ccc(O)cc1)C(=O)N[C@@H](CCCNC(=N)N)C(=O)N[C@H](C(=O)O)C(C)C)Cc1ccccc1 [Compound 6, KPLEFΨYRV] | 3.2 ± 0.5 nM | 0.342 ± 0.047 nM | 
